The subject of the test is SARS-CoV-2. Description: cell-based anti-viral assay using Vero E6 cell line, viral RNA by qRT-PCR. Conditions: Vero E6 cells, 48 h; for ΔCt (1 μM) / inhibition at 1 µM: 1 μM compound; for ΔCt (1 μM) / ΔCt (5 μM): increase in Ct vs no-drug control; for ΔCt (5 μM) / inhibition at 5 µM: 5 μM compound; for inhibition at 1 µM / inhibition at 5 µM: Severe acute respiratory syndrome coronavirus 2, Vero C1008, calculated from ΔCt; for inhibition at 1 µM: read-out: % SARS-CoV-2 Inactivation (1 μM); for inhibition at 5 µM: read-out: % SARS-CoV-2 Inactivation (5 μM).

Where only a bound is given, the exact number is not on record here.

As to `FC(F)(F)c1ccc(Nc2nc3ccc(C(F)(F)F)cc3[nH]2)cc1` [Example 33, 6-(trifluoromethyl)-N-(4-(trifluoromethyl)phenyl)-1H-benzo[d]imidazol-2-amine], the “ΔCt (1 μM)” value worked out at 1.4, the “ΔCt (5 μM)” value was 14.3, the inhibition at 1 µM was less than 3% and the inhibition at 5 µM is 100%.

In the case of `FC(F)(F)c1cccc(Nc2nc3c(C(F)(F)F)cc(C(F)(F)F)cc3[nH]2)c1` [Example 14, 4,6-bis(trifluoromethyl)-N-(3-(trifluoromethyl)phenyl)-1H-benzo[d]imidazol-2-amine], the “ΔCt (1 μM)” value amounted to 7.4, the “ΔCt (5 μM)” value was 16, the inhibition at 1 µM is 99% and the inhibition at 5 µM was 100%.

For `Fc1cc2nc(NCc3ccccc3)[nH]c2cc1F` [Example 13, N-benzyl-5,6-difluoro-1H-benzo[d]imidazol-2-amine], the “ΔCt (1 μM)” value was 1.3, the “ΔCt (5 μM)” value came out at 1, the inhibition at 1 µM is less than 3% and the inhibition at 5 µM was less than 3%.

In the case of `C[C@@H](Nc1nc2c(C(F)(F)F)cc(C(F)(F)F)cc2[nH]1)c1cccc2ccccc12` [Example 19, (R)—N-(1-(naphthalen-1-yl)ethyl)-4,6-bis(trifluoromethyl)-1H-benzo[d]imidazol-2-amine], the “ΔCt (1 μM)” value is recorded as 1.9, the “ΔCt (5 μM)” value was determined as 1.9, the inhibition at 1 µM is less than 3% and the inhibition at 5 µM was less than 3%.

Regarding `Fc1cc2nc(Nc3ccccc3)[nH]c2cc1F` [Example 8, 5,6-difluoro-N-phenyl-1H-benzo[d]imidazol-2-amine], the “ΔCt (1 μM)” value is reported as 3.1, the “ΔCt (5 μM)” value amounted to 4.2, the inhibition at 1 µM was 90% and the inhibition at 5 µM is more than 90%.

`COc1ccc(Nc2nc3c(C(F)(F)F)cc(C(F)(F)F)cc3[nH]2)cc1Br` [Example 4, N-(3-bromo-4-methoxyphenyl)-4,6-bis(trifluoromethyl)-1H-benzo[d]imidazol-2-amine]: the “ΔCt (1 μM)” value was 2.7, the “ΔCt (5 μM)” value is recorded as 6, the inhibition at 1 µM was less than 3% and the inhibition at 5 µM was more than 95%.

For the compound `FC(F)(F)c1ccc(Nc2nc3c(C(F)(F)F)cccc3[nH]2)cc1` [Example 36, 4-(trifluoromethyl)-N-(4-(trifluoromethyl)phenyl)-1H-benzo[d]imidazol-2-amine], the “ΔCt (1 μM)” value worked out at 12, the “ΔCt (5 μM)” value is on record as 12, the inhibition at 1 µM is more than 99.9% and the inhibition at 5 µM is more than 99.9%.

In the case of `COc1ccc(Nc2nc3cc(F)c(F)cc3[nH]2)cc1Br` [Example 9, N-(3-bromo-4-methoxyphenyl)-5,6-difluoro-1H-benzo[d]imidazol-2-amine], the “ΔCt (1 μM)” value is −1.1, the “ΔCt (5 μM)” value was determined as 1, the inhibition at 1 µM is less than 3% and the inhibition at 5 µM is less than 3%.

`CN(c1cc(C(F)(F)F)cc(C(F)(F)F)c1)c1nc2cccc(C(F)(F)F)c2[nH]1` [Example 44, N-(3,5-bis(trifluoromethyl)phenyl)-N-methyl-7-(trifluoromethyl)-1H-benzo[d]imidazol-2-amine]: the “ΔCt (1 μM)” value was determined as 1.4, the “ΔCt (5 μM)” value came to 5, the inhibition at 1 µM is less than 3% and the inhibition at 5 µM is more than 95%.

Take `Cn1c(Nc2cc(C(F)(F)F)cc(C(F)(F)F)c2)nc2cc(F)c(F)cc21` [Example 39, N-(3,5-bis(trifluoromethyl)phenyl)-5,6-difluoro-1-methyl-1H-benzo[d]imidazol-2-amine]: the “ΔCt (1 μM)” value amounted to 0.5, the “ΔCt (5 μM)” value is reported as 1, the inhibition at 1 µM is less than 3% and the inhibition at 5 µM was less than 3%.

`COc1ccc2nc(Nc3cc(C(F)(F)F)cc(C(F)(F)F)c3)[nH]c2c1` [Example 37, N-(3,5-bis(trifluoromethyl)phenyl)-6-methoxy-1H-benzo[d]imidazol-2-amine]: the “ΔCt (1 μM)” value came to 5, the “ΔCt (5 μM)” value came out at 4.3, the inhibition at 1 µM was more than 95% and the inhibition at 5 µM is more than 90%.

On to `Fc1ccc(Nc2nc3c(C(F)(F)F)cc(C(F)(F)F)cc3[nH]2)cc1` [Example 25, N-(4-fluorophenyl)-4,6-bis(trifluoromethyl)-1H-benzo[d]imidazol-2-amine], for which the “ΔCt (1 μM)” value amounted to 2, the “ΔCt (5 μM)” value is given as 3.6, the inhibition at 1 µM is less than 3% and the inhibition at 5 µM was 90%.

As to `FC(F)(F)c1cc(C(F)(F)F)c2nc(Nc3ccc(Cl)cc3)[nH]c2c1` [Example 2, N-(4-chlorophenyl)-4,6-bis(trifluoromethyl)-1H-benzo[d]imidazol-2-amine], the “ΔCt (1 μM)” value is 4.4, the “ΔCt (5 μM)” value was found to be 6, the inhibition at 1 µM is more than 90% and the inhibition at 5 µM was more than 95%.

With `FC(F)(F)Oc1ccc2nc(Nc3cccc(C(F)(F)F)c3)[nH]c2c1` [Example 30, 6-(trifluoromethoxy)-N-(3-(trifluoromethyl)phenyl)-1H-benzo[d]imidazol-2-amine], the “ΔCt (1 μM)” value is 1.1, the “ΔCt (5 μM)” value turned out to be 11.1, the inhibition at 1 µM is less than 3% and the inhibition at 5 µM was 99.9%.

Consider `FC(F)(F)c1cccc(Nc2nc3c(C(F)(F)F)cccc3[nH]2)c1` [Example 35, 4-(trifluoromethyl)-N-(3-(trifluoromethyl)phenyl)-1H-benzo[d]imidazol-2-amine], for which the “ΔCt (1 μM)” value turned out to be 1.7, the “ΔCt (5 μM)” value is on record as 7.5, the inhibition at 1 µM was less than 3% and the inhibition at 5 µM was 99%.

In the case of `FC(F)(F)c1cc(C(F)(F)F)c2nc(Nc3cccnc3)[nH]c2c1` [Example 5, N-(pyridin-3-yl)-4,6-bis(trifluoromethyl)-1H-benzo[d]imidazol-2-amine], the “ΔCt (1 μM)” value stood at 1, the “ΔCt (5 μM)” value is 1.2, the inhibition at 1 µM was less than 3% and the inhibition at 5 µM was less than 3%.

Turning to `FC(F)(F)c1cc(Nc2nc3c(C(F)(F)F)cccc3[nH]2)cc(C(F)(F)F)c1` [Example 34, N-(3,5-bis(trifluoromethyl)phenyl)-4-(trifluoromethyl)-1H-benzo[d]imidazol-2-amine], the “ΔCt (1 μM)” value worked out at 13.1, the “ΔCt (5 μM)” value amounted to 15.1, the inhibition at 1 µM was more than 99.9% and the inhibition at 5 µM was 100%.

Consider `FC(F)(F)c1cc(Nc2nc3ccc(C(F)(F)F)cc3[nH]2)cc(C(F)(F)F)c1` [Example 31, N-(3,5-bis(trifluoromethyl)phenyl)-6-(trifluoromethyl)-1H-benzo[d]imidazol-2-amine], for which the “ΔCt (1 μM)” value came out at 5.3, the “ΔCt (5 μM)” value amounted to 9, the inhibition at 1 µM was more than 95% and the inhibition at 5 µM was more than 99%.

`CC1(Nc2nc3c(C(F)(F)F)cc(C(F)(F)F)cc3[nH]2)CCC1` [Example 21, N-(1-methylcyclobutyl)-4,6-bis(trifluoromethyl)-1H-benzo[d]imidazol-2-amine]: the “ΔCt (1 μM)” value is 3.6, the “ΔCt (5 μM)” value was 9.3, the inhibition at 1 µM was more than 90% and the inhibition at 5 µM is more than 99%.

Regarding `FC(F)(F)c1cc(C(F)(F)F)c2nc(N3CCCCC3)[nH]c2c1` [Example 16, 2-(piperidin-1-yl)-4,6-bis(trifluoromethyl)-1H-benzo[d]imidazole], the “ΔCt (1 μM)” value was 0.8, the “ΔCt (5 μM)” value came to 1, the inhibition at 1 µM was less than 3% and the inhibition at 5 µM was less than 3%.

For the compound `Fc1cc2nc(Nc3cc(C(F)(F)F)cc(C(F)(F)F)c3)[nH]c2cc1F` [Example 11, N-(3,5-bis(trifluoromethyl)phenyl)-5,6-difluoro-1H-benzo[d]imidazol-2-amine], the “ΔCt (1 μM)” value was 5.8, the “ΔCt (5 μM)” value is 10.3, the inhibition at 1 µM was more than 95% and the inhibition at 5 µM is 99.9%.

In the case of `FC(F)(F)c1cc(C(F)(F)F)c2nc(Nc3ccccc3)[nH]c2c1` [Example 3, N-phenyl-4,6-bis(trifluoromethyl)-1H-benzo[d]imidazol-2-amine], the “ΔCt (1 μM)” value was found to be 1.8, the “ΔCt (5 μM)” value is on record as 3.3, the inhibition at 1 µM was less than 3% and the inhibition at 5 µM was 90%.

On to `Fc1cc(F)cc(Nc2nc3c(C(F)(F)F)cc(C(F)(F)F)cc3[nH]2)c1` [Example 26, N-(3,5-difluorophenyl)-4,6-bis(trifluoromethyl)-1H-benzo[d]imidazol-2-amine], for which the “ΔCt (1 μM)” value is given as 3.4, the “ΔCt (5 μM)” value was 9.4, the inhibition at 1 µM is 90% and the inhibition at 5 µM was more than 99%.

In the case of `Fc1cc2nc(Nc3cccc(C(F)(F)F)c3)[nH]c2cc1F` [Example 10, 5,6-difluoro-N-(3-(trifluoromethyl)phenyl)-1H-benzo[d]imidazol-2-amine], the “ΔCt (1 μM)” value worked out at 2.4, the “ΔCt (5 μM)” value is 2.4, the inhibition at 1 µM was less than 3% and the inhibition at 5 µM was less than 3%.

For `Cn1c(Nc2ccccc2)nc2cc(F)c(F)cc21` [Example 38, 5,6-difluoro-1-methyl-N-phenyl-1H-benzo[d]imidazol-2-amine], the “ΔCt (1 μM)” value was 0.4, the “ΔCt (5 μM)” value is −0.1, the inhibition at 1 µM is less than 3% and the inhibition at 5 µM was less than 3%.

Consider `FC(F)(F)c1cc(C(F)(F)F)c2nc(NCc3ccccc3)[nH]c2c1` [Example 6, N-benzyl-4,6-bis(trifluoromethyl)-1H-benzo[d]imidazol-2-amine], for which the “ΔCt (1 μM)” value is listed as 2, the “ΔCt (5 μM)” value is 1.6, the inhibition at 1 µM was less than 3% and the inhibition at 5 µM is less than 3%.
